Measurements as given in US20250041277A1, “METHODS AND DOSING REGIMENS COMPRISING A CDK2 INHIBITOR AND A CDK4 INHIBITOR FOR TREATING CANCER” (PFIZER INC., priority 2021, published 2025).
Marks after values point to notes of the source that are not given here.

Tests used:
T47D breast cancer model = assay: In vivo efficacy, HR+/HER2− T47D breast cancer model (Example 3); set-up: species or system NSG mice; settings: Day 41, PO BID: PF-07104091 150 mpk, PF-07220060 60 mpk, palbociclib 10 mpk
Procedure: (§1) Female NSG mice (Jackson Lab) were subcutaneously implanted with fragment (27 mm^3 to 64 mm^3 size) into the dorsal region. All mice for T47D, HCC1428 and ST941 PBR studies were supplemented with 8.5 μg/mL estradiol water (β-Estradiol Sigma-Aldrich, cat #E2758-5G) and gave ad libitum till end of study. For the in vivo efficacy studies, tumor volume and body weights were measured twice a week. Tumor volume was calculated using the [(Length×Width×Width)/2)] formula. TGI was calculated as 100*(1−ΔT/ΔC). The ΔC (ΔT) was obtained by subtracting the mean tumor burden in the vehicle (treated) group on the first day of treatment (Day 0) from the mean tumor burden in vehicle (treated) group on the assessment day. Statistical analysis was performed using ANCOVA when the mean tumor volume in vehicle treated mice reached tumor cutoff size.
(§2) The T47D model was established by implanting passage 3 tumor fragments into recipient mice. To establish the T47D donor mice, tumor cells (5×10^6 cell/mouse with 50% Cultrex® Basement Membrane Matrix) were subcutaneously implanted in female NSG mice. Once reaching a range of 700 to 800 mm^3, donor tumors were subsequently transplanted into secondary recipient mice for a study expansion. […] PF-07104091 (lot 016), PF-07220060 (lot 019) and PD-0332991 (lot GR08498) were administered (PO.) BID (7 hr apart). All mice received treatment continuously until Day 41. TGI was assessed on Day 41 post first dose.

[1] = test system: HCC1428 breast cancer model; assay: In vivo efficacy, HR+/HER2− HCC1428 breast cancer model (Example 3); set-up: species or system NSG mice; settings: HCC1428, Day 42; PO BID: PF-07104091 150 mpk, PF-07220060 60 mpk, palbociclib 10 mpk
Procedure: as §1
as §2, with “The HCC1428” for “The T47D”, “passage 4” for “passage 3”, “the HCC1428” for “the T47D”, “Day 42.” for “Day 41.”, “Day 42” for “Day 41”

[2] = test system: NCI-H1792 lung adenocarcinoma (LUAD) cells; assay: Spheroid growth inhibition (SGI) assay, NCI-H1792; format: cell-based; settings: NCI-H1792 spheroids; 30 nM palbociclib, 300 nM PF-07220060, 300 nM PF-07104091; 14 days
Procedure: (§3) NCI-H1792 and NCI-H23 lung adenocarcinoma (LUAD) cells lines were obtained from ATCC and maintained in RPMI 1640 medium supplemented with 10% fetal bovine serum and penicillin-streptomycin as per ATCC guidelines. Cells were maintained in humidified incubator at 37° C. with 5% CO2.
(§4) Spheroid assays were performed in 96 well ultralow attachment plates (ULA-96U) from Nexcelom & Thermo Fisher Scientific. […] To aid spheroid formation, dispensed cells were centrifuged at 220×g for 6 minutes in the ultralow attachment plates and allowed to form compact spheroids for 4 days prior to the initiation of treatment. […] DMSO (0.01%) was used as the vehicle control. DMSO and all compounds were diluted in cell medium. Medium and compounds were replenished twice per week, with 3 and 4-day intervals. Replenishment was executed by aspirating 150 μL of medium per well without disturbing the spheroid and then adding the same volume of premixed medium/compound solution to spheroids. Spheroid diameter was quantified immediately following each medium change twice a week (on every 3rd or 4th day) throughout the duration of the assay.
(§5) Average diameters of tumor spheroids were plotted in GraphPad Prism 8 and the AUC calculated. AUC baseline was determined by the average tumor spheroid diameter at Day 0 in the vehicle (DMSO) controls. Spheroid growth inhibition, or SGI, was calculated as follows: SGI=(1−AUC treatment/AUC DMSO)×100%. SGI for all treatment arms was derived at the timepoint when the vehicle (DMSO) treated spheroids reach their maximal diameter (usually close to 1 mm but this can differ among cell lines); this corresponds to the last time point taken for the vehicle (DMSO) treated spheroids. SEM was calculated based on n=10 to 12 wells per test group.
(§6) Growth of lung adenocarcinoma multicellular tumor spheroids (MCTS) was monitored over time to assess: (i) amplitude of response (SGI) and (ii) duration of response to the CDK4 inhibitor PF-07220060 as a single agent, and in combination with the CDK2 inhibitor PF-07104091.

ST941 PBR PDX model [3] = assay: In vivo efficacy, palbociclib-resistant ST941 PBR PDX model (Example 3); set-up: species or system NSG mice; settings: ST941PBR, Day 28; PO BID: PF-07104091 150 mpk, PF-07220060 60 mpk, palbociclib 10 mpk; fulvestrant 10 mpk SC 2x week 1 then weekly
Procedure: as §1
(§7) We established model in house by continuous treatment of the ST941 PBR tumor bearing mice with PD-0332991 at 50 mg/kg, PO QD plus fulvestrant at 10 mg/kg, SC twice in the first week, then weekly thereafter. To propagate donors for the TGI study, tumors were transplanted to recipient mice. One week after the re-implantation, the recipient mice received continuous treatment with palbociclib plus fulvestrant (dosing schedule described above). After 1 to 2 serial in vivo propagation with the same treatment regimen, the resistant tumors in the range of 700 to 800 mm^3 were re-implanted for a study expansion. The remaining tumor fragments were viably frozen for future use.
The live donor mice were established by implanting ST941 PBR (p11) tumor fragments. Once reaching a range of 700 to 800 mm^3, the donor tumors were subsequently transplanted into secondary recipient mice for a study expansion. To maintain the resistant clones, the ST941 PBR tumor bearing mice were treated with PD-0332991 at 50 mg/kg, PO. QD plus fulvestrant at 10 mg/kg, SC twice in the first week, then weekly afterwards for 10 weeks. The treatment was initiated one week after the implant until day of randomization for study enrollment. […] TGI was assessed on Day 28 post first dose.

[4] = test system: NCI-H23 lung adenocarcinoma (LUAD) cells; assay: Spheroid growth inhibition (SGI) assay, NCI-H23; format: cell-based; settings: NCI-H23 spheroids; 30 nM palbociclib, 300 nM PF-07220060, 300 nM PF-07104091; 14 days
Procedure: as §3, §4, §5, §6

ST941 PBR PDX model [5] = assay: In vivo efficacy, palbociclib-resistant ST941 PBR PDX model (Example 4); set-up: species or system NSG mice; settings: ST941PBR, Day 28, PO BID: PF-07104091 120 mpk, PF-07220060 60 mpk, PF-06873600 30 mpk, palbociclib 10 mpk, fulvestrant 10 mpk SC
Procedure: as §1, with “HCC1428, MCF7” for “T47D, HCC1428”
as §7
The live donor mice were established by implanting ST941 PBR (p13) tumor fragments. Once reaching a range of 700 to 800 mm^3, the donor tumors were subsequently transplanted into secondary recipient mice for a study expansion. To maintain the resistant clones, the ST941 PBR tumor bearing mice were treated with PD-0332991 at 50 mg/kg, PO. QD plus fulvestrant at 10 mg/kg, SC twice in the first week, then weekly afterwards for 10 weeks. The treatment was initiated one week after the implant until day of randomization for study enrollment. […] PF-07104091 (lot 021), PF-07220060 (lot CPo126812-01-SY-5700-01), PF-06873600 (lot 022) and PD-0332991 (lot GR08498) were administered (PO) BID (7 hr apart) while fulvestrant (lot 20160224-2) at 10 mg/kg, SC twice in the first week, then weekly afterwards. All mice received treatment continuously until Day 28. TGI was assessed on Day 28 post first dose.

MCF7 breast cancer model = assay: In vivo efficacy, HR+/HER2− MCF7 breast cancer model (Example 4); set-up: species or system NSG mice; settings: MCF7, Day 29; PO BID: PF-07104091 120 mpk, PF-07220060 60 mpk, PF-06873600 30 mpk, palbociclib 10 mpk; fulvestrant 10 mpk SC
Procedure: as §1, with “HCC1428, MCF7” for “T47D, HCC1428”
(§8) The MCF7 model was established by implanting donor tumor fragments into recipient mice. To establish the MCF7 donor mice, tumor cells (5×10^6 cell/mouse with 50% Cultrex® Basement Membrane Matrix) were subcutaneously implanted in female NSG mice. Once reaching a range of 700 to 800 mm^3, donor tumors were subsequently transplanted into secondary recipient mice for a study expansion. […] PF-07104091 (lot 022), PF-07220060 (lot CPo126812-01-SY-5700-01), PF-06873600 (lot 022) and PD-0332991 (lot GR08498) were administered (PO) BID (7 hr apart) while fulvestrant (lot 20160224-2) at 10 mg/kg, SC twice in the first week, then weekly afterwards. All mice received treatment continuously until Day 29. TGI was assessed on Day 29 post first dose

[6] = test system: HCC1428 breast cancer model; assay: In vivo efficacy, HR+/HER2− HCC1428 breast cancer model (Example 4); set-up: species or system NSG mice; settings: HCC1428, Day 42; PO BID: PF-07104091 120 mpk, PF-07220060 60 mpk, PF-06873600 30 mpk, palbociclib 10 mpk; fulvestrant 10 mpk SC
Procedure: as §1, with “HCC1428, MCF7” for “T47D, HCC1428”
as §8, with “The HCC1428” for “The MCF7”, “implanting passage 1” for “implanting donor”, “the HCC1428” for “the MCF7”, “Day 42.” for “Day 29.”, “Day 42” for “Day 29”, “first dose.” for “first dose”

Compound | TGI % (T47D breast cancer model) | TGI % [1] | SGI (%) [2] | TGI % (ST941 PBR PDX model [3]) | SGI (%) [4] | TGI % (ST941 PBR PDX model [5]) | TGI % (ST941 PBR PDX model [5]; listed as PF-0873600) | TGI % (MCF7 breast cancer model) | TGI % [6]
CC(=O)c1c(C)c2cnc(Nc3ccc(N4CCNCC4)cn3)nc2n(C2CCCC2)c1=O [palbociclib, reference compound] | 72^* % | 44^* % | 54% | 15% | 9% |  |  |  | 
C[C@@]1(O)CCC[C@H]1n1c(=O)c(C(F)F)cc2cnc(NC3CCN(S(C)(=O)=O)CC3)nc21 [PF-06873600, reference compound] |  |  |  |  |  | 47^* % | 47% | 70% | 97%
